Results on 27 molecules are retold here after article PMC6539479.

Entries after “also recorded” stand apart in the source; their conditions may differ. Like-named read-outs stand apart in the source and are kept apart here.

Assay [1] deals with human TASK-3 channels. Particulars: cited from earlier work.
The test system of assay [2] is human TASK-3 channels. Description: IonWorks Quattro electrophysiology assay, HEK293 (Coburn et al.). Particulars: TASK-3, from reported IC50.
Assay [3] has as its system TASK-1. The arrangement: method as in PMID 30803485. The note with it: cited from earlier work.
The mark [4] stands for this setting: Table S2, TASK-3, ref 16 (supplement ref 1).
[5] abbreviates: Table S3 reported activity, TASK-3.
[6] abbreviates: Table 1, Figure 4B and text, TASK-3.

`O=C(c1ccc(-c2ccccc2)cc1)N1CCc2ncnc(N3CCS(=O)(=O)CC3)c2C1` [Compound 17e]: the IC50 (usually the concentration that inhibits the measured activity by half) was 570 ± 60 nM in assay [1] (setting [4]) and 570 nM in assay [1] (setting [5]).

Take `CCOC(=O)C1CCN(c2ncnc3c2CN(C(=O)c2ccc(-c4ccccc4)cc2)CC3)CC1` [Compound 12f]: the IC50 in assay [1] (setting [4]) was 74 ± 9 nM.

For the molecule `CCOC(=O)C1CCN(c2ncnc3c2CN(C(=O)c2ccccc2)CC3)CC1` [Compound 12a], the concentration for half-maximal inhibition (IC50) in assay [1] (setting [4]) was 3600 ± 770 nM.

As to `CCOC(=O)C1CCN(c2ncnc3c2CN(C(=O)Nc2ccc(-c4ccccc4)cc2)CC3)CC1` [Compound 10c], in assay [1] (setting [4]), the IC50 was 9600 ± 500 nM.

`CCOC(=O)C1CCN(c2ncnc3c2CN(C(=O)c2ccc(C4CCCCC4)cc2)CC3)CC1` [Compound 12e]: the IC50 in assay [1] (setting [4]) is 120 ± 10 nM.

`CCOC(=O)C1CCN(c2ncnc3c2CN(C(=O)c2ccc(C)cc2)CC3)CC1` [Compound 12d]: the IC50 in assay [1] (setting [4]) is 310 ± 80 nM.

Regarding `O=C(c1ccc(-c2ccccc2)cc1)N1CCc2ncnc(N3CCCC3)c2C1` [Compound 17b], in assay [2], the “fold lower affinity than PK-THPP” value is roughly 1000 fold. Moreover, in assay [1] (setting [6]), the half-maximal inhibitory concentration (IC50) was 27000 nM. Also, the “inhibiting TASK-3 channels” value in assay [1] (potency range in words) is recorded as “micromolar range”.

Take `COC1CCN(c2ncnc3c2CN(C(=O)c2ccc(-c4ccccc4)cc2)CC3)CC1` [Compound 19]: the half-maximal inhibitory concentration (IC50) in assay [1] (setting [4]) is 135 ± 37 nM; in assay [1] (setting [5]), 135 nM.

On to `CCOC(=O)C1CCN(c2ncnc3c2CN(S(=O)(=O)c2ccccc2Cl)CC3)CC1` [Compound 11d], for which the IC50 in assay [1] (setting [4]) is 900 ± 100 nM.

As to `CCOC(=O)C1CCN(c2ncnc3c2CN(C(=O)c2ccc(-c4ccccc4)cc2)C(C)(C)C3)CC1` [Compound 13b], the IC50 in assay [1] (setting [4]) was 650 ± 30 nM.

In the case of `CCCC(=O)C1CCN(c2ncnc3c2CN(C(=O)c2ccc(-c4ccccc4)cc2)CC3)CC1` [PK-THPP], the “potency on TASK-1 relative to TASK-3” value in assay [3] is recorded as “almost nine-times less potency; also recorded: almost nine-fold less potency”.

Turning to `CCOC(=O)C1CCN(c2ncnc3c2CN(Cc2ccccc2)CC3)CC1` [Compound 9c], the IC50 in assay [1] (setting [4]) is 710 ± 80 nM.

With `CCOC(=O)C1CCN(c2ncnc3c2CN(S(=O)(=O)Cc2ccccc2)CC3)CC1` [Compound 11a], the IC50 in assay [1] (setting [4]) was 3600 ± 400 nM.

Turning to `CCOC(=O)C1CCN(c2nc(C)nc3c2CN(C(=O)c2ccc(-c4ccccc4)cc2)CC3)CC1` [Compound 14b], in assay [1] (setting [4]), the half-maximal inhibitory concentration (IC50) is 260 ± 50 nM.

For `CS(=O)(=O)C1CCN(c2ncnc3c2CN(C(=O)c2ccc(-c4ccccc4)cc2)CC3)CC1` [Compound 18], the 50% inhibitory concentration (IC50) is 82 ± 5 nM in assay [1] (setting [4]) and 82 nM in assay [1] (setting [5]).

On to `CCOC(=O)C1CCN(c2ncnc3c2CN(S(=O)(=O)c2ccc(Cl)cc2)CC3)CC1` [Compound 11b], for which the IC50 in assay [1] (setting [4]) is 3900 ± 500 nM.

Take `CC(C)(O)C1CCN(c2ncnc3c2CN(C(=O)c2ccc(-c4ccccc4)cc2)CC3)CC1` [Compound 21]: the IC50 is 50 nM in assay [1] (TASK-3), 50 nM in assay [1] (setting [6]), 50 ± 6 nM in assay [1] (setting [4]) and 50 nM in assay [1] (setting [5]).

For `CCOC(=O)C1CCN(c2ncnc3c2CN(C(=O)c2ccc(-c4ccccc4)cc2)CC3(C)C)CC1` [Compound 13a], the half-maximal inhibitory concentration (IC50) in assay [1] (setting [4]) was 570 ± 30 nM.

For `CCOC(=O)C1CCN(c2ncnc3c2CN(C(=O)c2ccc(OC)cc2)CC3)CC1` [Compound 12b], the IC50 in assay [1] (setting [4]) was 1600 ± 180 nM.

Consider `O=C(c1ccc(-c2ccccc2)cc1)N1CCc2ncnc(N3CCOCC3)c2C1` [Compound 17d], for which the IC50 in assay [1] (setting [4]) is 4600 ± 1100 nM.

For the molecule `CCC(=O)C1CCN(c2ncnc3c2CN(C(=O)c2ccc(-c4ccccc4)cc2)CC3)CC1` [Compound 24], the results for the concentration for half-maximal inhibition (IC50) in assay [1] (setting [4]) and in assay [1] (setting [5]) were 80 ± 9 nM and 80 nM, respectively.

For the molecule `CCOC(=O)C1CCN(c2ncnc3c2CN(C(=O)c2ccc(Br)cc2)CC3)CC1` [Compound 12c], the IC50 in assay [1] (setting [4]) was 430 ± 60 nM.

In the case of `CCOC(=O)C1CCN(c2ncnc3c2CN(C(=O)NCc2ccccc2)CC3)CC1` [Compound 10b], the IC50 in assay [1] (setting [4]) was 3400 ± 400 nM.

In the case of `O=C(c1ccc(-c2ccccc2)cc1)N1CCc2ncnc(N3CC[C@H]4OCCC[C@@H]4C3)c2C1` [Compound 20b], the IC50 is 70 nM in assay [1] (TASK-3), 70 nM in assay [1] (setting [6]), 70 ± 7 nM in assay [1] (setting [4]) and 70 nM in assay [1] (setting [5]).

For `CCOC(=O)C1CCN(c2ncnc3c2CN(S(=O)(=O)c2cccc(Cl)c2)CC3)CC1` [Compound 11c], in assay [1] (setting [4]), the IC50 was 700 ± 70 nM.

As to `O=C(c1ccc(-c2ccccc2)cc1)N1CCc2ncnc(N3CCCCC3)c2C1` [Compound 17c], the IC50 in assay [1] (setting [4]) was 4000 ± 1100 nM.

With `CCc1noc(C2CCN(c3ncnc4c3CN(C(=O)c3ccc(-c5ccccc5)cc3)CC4)CC2)n1` [Compound 22], the IC50 in assay [1] (TASK-3) was 70 nM; in assay [1] (setting [6]), 70 nM; in assay [1] (setting [4]), 70 ± 10 nM; in assay [1] (setting [5]) it was 70 nM.
